Assay results: patent US8574831B2, “Mutational profiles in HIV-1 reverse transcriptase correlated with phenotypic drug resistance” (Virco N.V., priority 2000, dated 2013)

System: HIV with mutations in the HIV protease sequence
Test: Phenotypic fold resistance to protease inhibitors, protease mutations 84A/84L/84C/54M/54L/54V in a background (Examples 8-13)
Assay type: cell-based, HIV-1
Experimental: As is the case with the genotyping assays, the recombinant virus assay starts with the amplification of viral target sequences by means of PCR. The amplicons are incorporated into a proviral laboratory clone with sequences homologous to those present in the amplicon deleted. This generates a stock of chimeric viruses. The viruses are tested for their ability to grow in the presence of different concentrations of drugs. Results are obtained by calculating IC50 values for each inhibitor and by reporting the results as IC50 values, expressed in μM concentrations, or by computing the ratio of the IC50 values found for the chimeric virus to the IC50 values found for a wild type susceptible laboratory virus tested in parallel. In the latter case, resistance is expressed as “fold-resistance” compared to a wild-type susceptible HIV-1 strain. In order to meet the need for high-volume testing and a short turn-around time for an individual test, the latest generation of phenotyping assays has undergone further modifications. The use of reporter gene systems for susceptibility testing allows the implementation of laboratory automation and standardization. See Pauwels, et al., J. Virol. Methods 20, 309-321 (1998); Paulous, S., et al., International Workshop on HIV Drug Resistance, Treatment Strategies and Eradication, St. Petersburg, Fla., USA. Abstr. 46 (1997); and Deeks, S. G., et al., 2nd International Workshop on HIV Drug Resistance and Treatment Strategies, Lake Maggiore, Italy. Abstr. 53 (1998).
The ANTIVIROGRAM® assay (Virco) (WO 97/27480) is based on homologous recombination of patient derived HIV-1 gag/PR/RT sequences into a proviral HIV-1 clone correspondingly deleted for the gag/PR/RT sequences. See Pauwels, et al., J. Virol. Methods 20, 309-321 (1998). A similar assay (Phenosense ViroLogic) is based on enzymatic ligation of patient-derived PR/RT sequences into a correspondingly deleted proviral vector carrying an indicator gene, luciferase, inserted in the deleted HIV-1 envelope gene. See Deeks, S. G., et al., 2nd International Workshop on HIV Drug Resistance and Treatment Strategies, Lake Maggiore, Italy. Abstr. 53 (1998). Hertogs et al. Antimicrob. Agents Chemother. 44(3) 568-573 (2000) the disclosures of which are herein incorporated by reference.
The methods of monitoring HIV-1 drug resistance, may also be used in combination with phenotypic drug resistance testing of viral isolates. For example, in one embodiment, a phenotypic test is utilized that is based upon the construction of chimeric HIV-1 strains composed of the protease (PR) and reverse transcriptase (RT) gene sequences which are isolated and amplified from the patient viral RNA. These strains may subsequently be recombined inside CD4+ T cells with a standard laboratory isogenic (HXB2) HIV-1 DNA construct from which the PR/RT gene sequences were deleted. The recombinant strains may then be grown in the presence of the above-mentioned antiviral drugs and the susceptibility of the viral isolates may be expressed as fold-change value of the IC50 of the drug on the patient isolates over the IC50 of the drug on a wild-type laboratory reference strain.

CC(C)(C)NC(=O)[C@@H]1C[C@@H]2CCCC[C@@H]2CN1C[C@@H](O)[C@H](Cc1ccccc1)NC(=O)[C@H](CC(N)=O)NC(=O)c1ccc2ccccc2n1 [Saquinavir, saquinavir]
mean fold increase in resistance (Table 9 #1, protease genotype WT): 0.9 fold
mean fold increase in resistance (Table 9 #2, protease genotype 10I): 0.9 fold
mean fold increase in resistance (Table 9 #3, protease genotype 46I): 0.6 fold
mean fold increase in resistance (Table 9 #4, protease genotype 46I + 84V): 2.5 fold
mean fold increase in resistance (Table 9 #5, protease genotype 46I + 84A): 38.1 fold
mean fold increase in resistance (Table 9 #6, protease genotype 10I + 46I): 0.5 fold
mean fold increase in resistance (Table 9 #7, protease genotype 10I + 46I + 84V): 4.1 fold
mean fold increase in resistance (Table 9 #8, protease genotype 10I + 46I + 84A): 48.2 fold
mean fold increase in resistance (Table 9 #9, protease genotype 10L/I + 46I + 84A): 46.4 fold
mean fold increase in resistance (Table 9 #10, protease genotype 10I + 46I + 84A): 42.8 fold
mean fold increase in resistance (Table 9 #11, protease genotype 46I + 71V): 0.6 fold
mean fold increase in resistance (Table 9 #12, protease genotype 46I + 71V + 84V/I): 0.6 fold
mean fold increase in resistance (Table 9 #13, protease genotype 46I + 71V + 84A): 47.7 fold
mean fold increase in resistance (Table 9 #14, protease genotype 10F + 46I + 71V): 1.9 fold
mean fold increase in resistance (Table 9 #15, protease genotype 10I + 46I + 71V + 84V): 15.9 fold
mean fold increase in resistance (Table 9 #16, protease genotype 10I + 46I + 71V + 84A): 48.2 fold
mean fold increase in resistance (Table 9 #17, protease genotype 10V + 46I + 71T + 84A): 48.2 fold
mean fold increase in resistance (Table 9 #18, protease genotype 10I + 46I + 71V + 77I): 1.3 fold
mean fold increase in resistance (Table 9 #19, protease genotype 10I + 46I + 71V + 77I + 84V): 2.5 fold
mean fold increase in resistance (Table 9 #20, protease genotype 10I + 46I + 71V + 77I + 84A): 47.1 fold
mean fold increase in resistance (Table 9 #21, protease genotype 10I + 33L/I + 46I + 71V + 77V/I + 84A): 44.7 fold
mean fold increase in resistance (Table 10 #1, protease genotype 10I + 36I + 71V): 1.6 fold
mean fold increase in resistance (Table 10 #2, protease genotype 10I + 36I + 71I + 84V): 0.8 fold
mean fold increase in resistance (Table 10 #3, protease genotype 10I + 36I + 71I + 84L): 10.2 fold
mean fold increase in resistance (Table 11 #1, protease genotype WT): 0.9 fold
mean fold increase in resistance (Table 11 #2, protease genotype 84V): 0.7 fold
mean fold increase in resistance (Table 11 #3, protease genotype 84C): 26.4 fold
mean fold increase in resistance (Table 11 #4, protease genotype 10I): 0.9 fold
mean fold increase in resistance (Table 11 #5, protease genotype 10I + 84V): 2.7 fold
mean fold increase in resistance (Table 11 #6, protease genotype 10I + 84C): 37.1 fold
mean fold increase in resistance (Table 11 #7, protease genotype 77I): 0.3 fold
mean fold increase in resistance (Table 11 #8, protease genotype 77I + 84V): 3.5 fold
mean fold increase in resistance (Table 11 #9, protease genotype 77I + 84C): 18.1 fold
mean fold increase in resistance (Table 11 #10, protease genotype 77I + 84C): 18.5 fold
mean fold increase in resistance (Table 11 #11, protease genotype 10I + 24I + 36I + 46I + 71V + 84C): 46.4 fold
Fold change in IC50 (Table 12, V19263, genotype 77I): 0.3 fold
Fold change in IC50 (Table 12, V20160, genotype WT): 0.9 fold
Fold change in IC50 (Table 12, V021667, genotype 10I): 0.9 fold
Fold change in IC50 (Table 12, V030496, genotype 10I + 77I): 0.3 fold
Fold change in IC50 (Table 12, V048869, genotype 10I + 54M + 77I + 90M): 5.1 fold
Fold change in IC50 (Table 12, V048872, genotype 33F + 54M + 77I + 90M): 5.2 fold
Fold change in IC50 (Table 12, V048873, genotype 33F + 54M + 77I + 90M): 3.1 fold
Fold change in IC50 (Table 12, V048877, genotype 10I + 33F + 77I + 90M): 1.5 fold
Fold change in IC50 (Table 12, V048878, genotype 10I + 33F + 54M + 71V + 77I + 90M): 4.0 fold
Fold change in IC50 (Table 12, V048879, genotype 10I + 33F + 54M + 71V + 77I + 90M): 51.8 fold
Fold change in IC50 (Table 12, V048880, genotype 10I + 33F + 77I + 90M): 2.7 fold
Fold change in IC50 (Table 12, V052940, genotype 71V): 0.8 fold
Fold change in IC50 (Table 12, V052942, genotype 10I + 71V): 0.8 fold
Fold change in IC50 (Table 12, V052943, genotype 10I + 90M): 1.1 fold
Fold change in IC50 (Table 12, V052944, genotype 10I + 90M): 0.7 fold
Fold change in IC50 (Table 12, V052945, genotype 77I + 90M): 1.4 fold
Fold change in IC50 (Table 12, V052946, genotype 71V + 90M): 1.4 fold
Fold change in IC50 (Table 12, V052947, genotype 10I + 77I + 90M): 3.9 fold
Fold change in IC50 (Table 12, V052948, genotype 10I + 71V + 90M): 4.8 fold
Fold change in IC50 (Table 12, V052949, genotype 10I + 71V + 77I + 90M): 2.1 fold
Fold change in IC50 (Table 12, V052950, genotype 33F): 1.2 fold
Fold change in IC50 (Table 12, V052951, genotype 33F + 77I): 0.4 fold
Fold change in IC50 (Table 12, V052953, genotype 10I + 33F + 77I): 1.2 fold
Fold change in IC50 (Table 12, V052954, genotype 33F + 77I + 90M): 1.7 fold
Fold change in IC50 (Table 12, V052955, genotype 33F + 71V + 90M): 20.4 fold
Fold change in IC50 (Table 12, V052977, genotype 10I + 33F + 54M): 0.5 fold
Fold change in IC50 (Table 12, V052978, genotype 10I + 33F + 54M + 71V + 90M): 9.9 fold
Fold change in IC50 (Table 12, V052979, genotype 10I + 54M): 1.4 fold
Fold change in IC50 (Table 12, V052980, genotype 10I + 54M + 90M): 1.4 fold
Fold change in IC50 (Table 12, V052981, genotype 10I + 54M + 71V + 90M): 5.4 fold
Fold change in IC50 (Table 12, V052982, genotype 10I + 54M + 71V + 77I + 90M): 4.2 fold
Fold change in IC50 (Table 12, V053832, genotype 10I + 33F): 0.5 fold
